We go through 2 compounds from PMC2892419 (Biochemistry, 2010).

In test [1] the test system is Sgx9236b. As to the kind of experiment: direct UV assay of deamination, […] nm. The settings on record: pH 8.5, 30 °C. The class given is biochemical, Unknown prokaryotic organism (Sargasso Sea metagenome).
Test [2] deals with Sgx9236b. As to the kind of experiment: direct UV assay of deamination, […] nm. It is filed as biochemical, Unknown prokaryotic organism (Sargasso Sea metagenome). The settings on record: pH 8.5, 30 °C. The source holds these as a separate data set.

As for `Nc1nc2[nH]c(=O)cnc2c(=O)[nH]1` [I, isoxanthopterin], the Km in the test with Sgx9236b [1] came out at 50 ± 10 µM.
On to `Nc1nc2ncc(C(=O)O)nc2c(=O)[nH]1` [II, pterin-6-carboxylate], for which the Km with Sgx9236b [2] was 90 ± 30 µM.

The Km is the substrate concentration at which the rate is half of its maximum.
